Measurements taken from ChEMBL document CHEMBL1201862, “PubChem BioAssay data set” (2004).
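Values below derive from 48-hour exposures of cells grown in 96-well plates, with endpoints linearly interpolated between the two concentrations bracketing the appropriate inhibition level. GI50 = concentration required for 50% inhibition of growth.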 Active and inactive are the calls of the source. Cut-off read from the data, not from the text of the source: active = GI50 up to about 1.1 µM and inactive = higher.

What was measured:
Experiment in all cases: DTP human tumour cell line panel, 48 h
OVCAR-4 = system: OVCAR-4
IGROV-1 = system: IGROV-1
NCI-H522 = system: NCI-H522
ACHN = system: ACHN
OVCAR-3 = system: OVCAR-3
UACC-257 = system: UACC-257
U-251 = system: U-251
NCI-H226 = system: NCI-H226
HCC 2998 = system: HCC 2998
786-0 = system: 786-0
HT-29 = system: HT-29
LOX IMVI = system: LOX IMVI
OVCAR-8 = system: OVCAR-8
A498 = system: A498
EKVX = system: EKVX
SR = system: SR
HCT-116 = system: HCT-116
SF-539 = system: SF-539

Row | Compound | GI50 (OVCAR-4) | GI50 (IGROV-1) | GI50 (NCI-H522) | GI50 (ACHN) | GI50 (OVCAR-3) | GI50 (UACC-257) | GI50 (U-251) | GI50 (NCI-H226) | GI50 (HCC 2998) | GI50 (786-0) | GI50 (HT-29) | GI50 (LOX IMVI) | GI50 (OVCAR-8) | GI50 (A498) | GI50 (EKVX) | GI50 (SR) | GI50 (HCT-116) | GI50 (SF-539)
1 | O=C(CNC(=O)OCc1ccccc1)Oc1ccccc1 | > 100 µM (inactive) | > 100 µM (inactive) | > 100 µM (inactive) | > 100 µM (inactive) | > 100 µM (inactive) | > 100 µM (inactive) | > 100 µM (inactive) | > 100 µM (inactive) | > 100 µM (inactive) | > 100 µM (inactive) | > 100 µM (inactive) | > 100 µM (inactive) | > 100 µM (inactive) | > 100 µM (inactive) | > 100 µM (inactive) | > 100 µM (inactive) | > 100 µM (inactive) | > 100 µM (inactive)
2 | COc1cccc(/C=N/NC(N)=O)c1O | > 100 µM (inactive) | > 100 µM (inactive) | > 100 µM (inactive) | > 100 µM (inactive) | > 100 µM (inactive) | > 100 µM (inactive) | > 100 µM (inactive) | > 100 µM (inactive) | > 100 µM (inactive) | > 100 µM (inactive) | > 100 µM (inactive) | > 100 µM (inactive) | > 100 µM (inactive) | > 100 µM (inactive) | > 100 µM (inactive) | 0.0603 µM (active) | > 100 µM (inactive) | > 100 µM (inactive)
3 | CC[N+](C)(C)c1ccc(C(=C2C=CC(=[N+](C)C)C=C2)c2ccc(N(C)C)cc2)cc1 | 15.1 µM (inactive) | 12 µM (inactive) | 2.79 µM (inactive) | 10.8 µM (inactive) | 10.5 µM (inactive) | 13.2 µM (inactive) | 3.94 µM (inactive) | 19.7 µM (inactive) | 6.17 µM (inactive) | 5.94 µM (inactive) | 4.93 µM (inactive) | 5.2 µM (inactive) | 12.8 µM (inactive) | 15.9 µM (inactive) | 4.97 µM (inactive) | 10.6 µM (inactive) | 4.2 µM (inactive) | 12.8 µM (inactive)
4 | O=C(O/N=C1/CCC/C1=C\c1ccccc1)c1ccc([N+](=O)[O-])cc1 | > 100 µM (inactive) | > 100 µM (inactive) | > 100 µM (inactive) | > 100 µM (inactive) | > 100 µM (inactive) | > 100 µM (inactive) | > 100 µM (inactive) | > 100 µM (inactive) | 11.7 µM (inactive) | > 100 µM (inactive) | > 100 µM (inactive) | > 100 µM (inactive) | > 100 µM (inactive) | > 100 µM (inactive) | > 100 µM (inactive) | > 100 µM (inactive) | > 100 µM (inactive) | 89.3 µM (inactive)
5 | Cc1cc(Cl)ccc1N1C(=O)C(=O)C(c2nc3ccccc3s2)C(=O)C1=O | > 100 µM (inactive) | > 100 µM (inactive) | > 100 µM (inactive) | > 100 µM (inactive) | > 100 µM (inactive) | > 100 µM (inactive) | > 100 µM (inactive) | > 100 µM (inactive) | – | > 100 µM (inactive) | > 100 µM (inactive) | – | > 100 µM (inactive) | > 100 µM (inactive) | > 100 µM (inactive) | > 100 µM (inactive) | > 100 µM (inactive) | > 100 µM (inactive)
6 | COc1ccc2c(c1)C(=O)Cc1ccccc1CC2 | > 100 µM (inactive) | > 100 µM (inactive) | > 100 µM (inactive) | > 100 µM (inactive) | > 100 µM (inactive) | > 100 µM (inactive) | > 100 µM (inactive) | > 100 µM (inactive) | > 100 µM (inactive) | 72.3 µM (inactive) | > 100 µM (inactive) | > 100 µM (inactive) | > 100 µM (inactive) | > 100 µM (inactive) | > 100 µM (inactive) | > 100 µM (inactive) | > 100 µM (inactive) | > 100 µM (inactive)
7 | Cc1ccc(-n2c(C)nc3c2C(=O)c2ccccc2C3=O)cc1 | 82.8 µM (inactive) | 27.9 µM (inactive) | 34.7 µM (inactive) | 27.9 µM (inactive) | 21.8 µM (inactive) | 19.1 µM (inactive) | 9.46 µM (inactive) | > 100 µM (inactive) | 57.5 µM (inactive) | 18.5 µM (inactive) | 11.9 µM (inactive) | 7.98 µM (inactive) | 17.4 µM (inactive) | – | > 100 µM (inactive) | > 100 µM (inactive) | 5.73 µM (inactive) | 10.4 µM (inactive)
8 | COc1cccc(N2C(=O)C3C4C=C5c6ccccc6N(c6ccccc6)C5(C3C2=O)[C@H]2C(=O)N(c3cccc(OC)c3)C(=O)[C@@H]42)c1 (stereo partly drawn) | > 100 µM (inactive) | > 100 µM (inactive) | – | – | > 100 µM (inactive) | > 100 µM (inactive) | > 100 µM (inactive) | > 100 µM (inactive) | – | > 100 µM (inactive) | > 100 µM (inactive) | > 100 µM (inactive) | > 100 µM (inactive) | > 100 µM (inactive) | > 100 µM (inactive) | > 100 µM (inactive) | > 100 µM (inactive) | > 100 µM (inactive)
